The target of assay [1] is Glutamate metabotropic receptor 1 (Sus scrofa, UniProt F1S737).
Assay [2] addresses Glutamate metabotropic receptor 5 (Cavia porcellus, UniProt H0VDS0).

Where “and” joins values, the source holds several entries; their conditions need not be identical. Identical values can stand only once.

What is called Ki is a dissociation constant, usually derived from enzyme kinetics or from competition with a known ligand. A high value points to lower affinity.

Chain of Glutamate metabotropic receptor 1 (F1S737 whole entry): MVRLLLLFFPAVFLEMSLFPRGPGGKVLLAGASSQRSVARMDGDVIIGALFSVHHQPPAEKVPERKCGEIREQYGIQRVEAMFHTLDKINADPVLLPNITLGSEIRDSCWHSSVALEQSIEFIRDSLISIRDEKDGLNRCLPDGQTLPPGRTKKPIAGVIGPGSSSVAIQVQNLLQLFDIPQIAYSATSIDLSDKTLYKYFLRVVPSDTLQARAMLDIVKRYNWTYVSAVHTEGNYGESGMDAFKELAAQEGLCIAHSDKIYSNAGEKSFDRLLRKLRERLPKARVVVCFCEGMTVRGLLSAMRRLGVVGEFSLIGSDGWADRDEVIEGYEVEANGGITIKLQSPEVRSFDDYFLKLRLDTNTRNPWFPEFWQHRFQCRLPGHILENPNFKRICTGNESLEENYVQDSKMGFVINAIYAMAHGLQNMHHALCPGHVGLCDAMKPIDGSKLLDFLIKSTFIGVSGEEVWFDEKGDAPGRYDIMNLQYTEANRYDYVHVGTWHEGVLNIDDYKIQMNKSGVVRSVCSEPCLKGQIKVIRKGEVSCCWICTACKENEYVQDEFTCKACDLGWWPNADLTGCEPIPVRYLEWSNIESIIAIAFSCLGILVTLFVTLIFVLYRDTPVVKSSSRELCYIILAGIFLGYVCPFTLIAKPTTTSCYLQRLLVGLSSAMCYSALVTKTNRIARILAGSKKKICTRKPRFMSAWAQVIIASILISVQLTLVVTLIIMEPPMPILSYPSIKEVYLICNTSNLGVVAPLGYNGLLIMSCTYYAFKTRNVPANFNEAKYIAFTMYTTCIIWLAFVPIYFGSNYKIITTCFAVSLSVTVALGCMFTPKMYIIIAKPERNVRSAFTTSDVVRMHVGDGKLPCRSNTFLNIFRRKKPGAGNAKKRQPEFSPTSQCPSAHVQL
Chain of Glutamate metabotropic receptor 5 (H0VDS0 whole entry): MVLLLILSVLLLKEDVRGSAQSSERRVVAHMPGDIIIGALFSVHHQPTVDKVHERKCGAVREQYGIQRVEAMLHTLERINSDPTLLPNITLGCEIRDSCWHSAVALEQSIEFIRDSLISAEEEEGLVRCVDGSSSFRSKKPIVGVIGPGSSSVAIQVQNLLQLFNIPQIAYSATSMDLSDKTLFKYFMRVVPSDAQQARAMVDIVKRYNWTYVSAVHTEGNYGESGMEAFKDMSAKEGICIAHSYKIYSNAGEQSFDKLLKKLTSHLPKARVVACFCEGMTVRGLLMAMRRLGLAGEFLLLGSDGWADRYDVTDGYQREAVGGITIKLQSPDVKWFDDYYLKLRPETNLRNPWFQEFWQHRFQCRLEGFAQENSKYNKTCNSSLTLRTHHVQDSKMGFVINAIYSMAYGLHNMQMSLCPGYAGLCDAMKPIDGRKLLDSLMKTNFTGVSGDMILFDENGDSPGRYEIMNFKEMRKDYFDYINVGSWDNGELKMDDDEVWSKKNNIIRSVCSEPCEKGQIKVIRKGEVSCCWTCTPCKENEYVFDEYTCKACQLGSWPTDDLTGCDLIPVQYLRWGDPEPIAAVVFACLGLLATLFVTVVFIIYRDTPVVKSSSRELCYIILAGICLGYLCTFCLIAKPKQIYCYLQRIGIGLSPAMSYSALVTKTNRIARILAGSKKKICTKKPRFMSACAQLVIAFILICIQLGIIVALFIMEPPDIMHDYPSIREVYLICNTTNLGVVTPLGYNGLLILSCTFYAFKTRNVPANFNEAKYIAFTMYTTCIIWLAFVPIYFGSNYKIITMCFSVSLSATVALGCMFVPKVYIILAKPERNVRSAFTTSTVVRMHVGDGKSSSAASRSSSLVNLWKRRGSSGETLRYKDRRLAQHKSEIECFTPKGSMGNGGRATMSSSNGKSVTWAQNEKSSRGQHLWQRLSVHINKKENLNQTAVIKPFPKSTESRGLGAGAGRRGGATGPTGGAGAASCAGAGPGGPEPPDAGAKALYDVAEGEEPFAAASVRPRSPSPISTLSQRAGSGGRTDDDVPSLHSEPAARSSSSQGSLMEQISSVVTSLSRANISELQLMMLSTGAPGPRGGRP

Turning to `N[C@]1(C(=O)O)CC[C@@H](C(=O)O)C1`, the inhibition constant Ki in assay [1] and in assay [2] was greater than 10 µM in each case.

Regarding `N[C@@]1(C(=O)O)CC[C@H](C(=O)O)C1` [1S, 3R-ACPD], the Ki in assay [1] was > 10 µM and 9.3 µM; in assay [2], > 10 µM and 6.7 µM and 5.3 µM.

`N[C@@H](Cn1oc(=O)[nH]c1=O)C(=O)O` [2-amino-3-(3,5-dioxo[1,2,4]oxadiazolidin-2-yl)propionic acid]: the Ki was 0.26 µM in assay [1]; 0.022 µM and 0.047 µM in assay [2].

With `NC(C(=O)O)c1cc(=O)[nH]o1` (stereo not given) [Amino-(3-hydroxy-isoxazol-5-yl)-acetic acid(Ibotenic acid)], the inhibition constant (Ki) is greater than 10 µM in assay [1]; 2.87 µM and 1.93 µM in assay [2].

Consider `N[C@@H](CCC(=O)O)C(=O)O` [L-Glutamic acid], for which the inhibition constant (Ki) was greater than 10 µM in assay [1]; 9.75 µM and 7.67 µM in assay [2].
